According to ChEMBL document CHEMBL3046185, “Antifeedant activity of neo-clerodane diterpenoids from Teucrium arduini” (2002):

These compounds were tested on Spodoptera littoralis (assay: Antifeedant activity against Spodoptera littoralis using glass-fibre disks at 100 ppm measured after 18 hr by binary choice feeding bioassay relative to control).
Format: functional

SMILES	AFI
C[C@@H]1C[C@@H](O)[C@@]23COC(=O)C2=CCC[C@@H]3[C@@]12C[C@@H](c1ccoc1)OC2=O [6BETA-HYDROXYTEUSCORDIN]	73.1%
C[C@@H]1C[C@@H](O)[C@@]2(CO)C(CO)=C[C@@H](O)C[C@@H]2[C@@]12C[C@@H](c1ccoc1)OC2=O [19-DEACETYLTEUSCORODOL]	-54.5%
CC(=O)OC[C@@]12CCC[C@@H]3[C@@]4(C[C@@H](c5ccoc5)OC4=O)[C@H](C)C[C@@H](OC(C)=O)[C@]31CO2 [DIACETYLMONTANIN D]	34.6%
C[C@@H]1C[C@@H](O)[C@@]23COC(=O)C2C[C@@H](O)C[C@@H]3[C@@]12C[C@@H](c1ccoc1)OC2=O (some centres undefined) [DIHYDROTEUGIN]	-1.2%
C[C@@H]1C[C@@H]2OC(=O)C3=C2[C@H](CC[C@@H]3O)[C@@]12C[C@@H](c1ccoc1)OC2=O [ISOTEUFLIFIN]	11%
C[C@@H]1C[C@@H](O)[C@@]23CO[C@]2(CO)CCC[C@@H]3[C@@]12C[C@@H](c1ccoc1)OC2=O [MONTANIN D]	82.1%
C[C@@H]1C[C@@H]2OC(=O)C3=C2[C@H](CCC3)[C@@]12C[C@@H](c1ccoc1)OC2=O [TEUCVIN]	52.2%
C[C@@H]1C[C@@H](O)[C@@]23COC(=O)C2=C[C@@H](O)C[C@@H]3[C@@]12C[C@@H](c1ccoc1)OC2=O [TEUGIN]	11.1%
C[C@@H]1CC(=O)[C@@]23COC(=O)C2=CCC[C@@H]3[C@@]12C[C@@H](c1ccoc1)OC2=O [TEUSCORDINON]	55.7%
